Values quoted from earlier work, collected in patent publication US20250090695A1, “IMMUNOSTIMULANT-CYTOTOXIC CONJUGATE COMPOSITION AND METHODS FOR CANCER TREATMENT” (The Research Foundation for the State University of New York, priority 2022, published 2025).

Assays:
[1] = metastatic setting; cited from earlier work
[2] = patients; versus 11.2 months with placebo; cited from earlier work

Molecule	Overall survival extension [1]	Overall survival [2] [months]
CNC(=O)c1ccc(N2C(=S)N(c3ccc(C#N)c(C(F)(F)F)c3)C(=O)C2(C)C)cc1F [enzalutamide]	4-5 months	–
Radium-223	–	14
